Experimental data reported in US10450260B2, “NO- and H2S-releasing compounds” (RESEARCH FOUNDATION OF THE CITY UNIVERSITY OF NEW YORK, priority 2011, dated 2019).
Read-outs that look alike come from different tables or passages of the source.

Legend:
Format in all cases: cell-based
[1] = test system: A549 human lung cancer; experiment: MTT cell growth inhibition, A549; details: for IC50: Homo sapiens, A549; for Ratio NSAID/NOSH-NSAID, A549: fold-enhancement in potency over the parent compound
Procedure: (§1) HT-29, SW-480 and HCT-15 human colon adenocarcinoma, MIA PaCa-2 and BxPC-3 human pancreatic cancer, LNCAP human prostate cancer, A549 human lung cancer, MCF-7 (estrogen receptor positive), MDA-MB 231 and SK-BR-3 (estrogen receptor negative) human breast cancer, and Jurkats human leukemia cell lines were obtained from American Type Tissue Collection (Manassas, Va.). All cells lines were grown as monolayers except for the Jurkats which were grown in suspension. The pancreatic and breast cancer cells were grown in Dulbecco's modified Eagle's medium, the prostate, Jurkat, SW-480 and HCT-15 colon cells were grown in RPMI 1640 medium, the lung cells were grown in F-12 and the colon HT-29 cells were grown in McCoy 5A. All media were supplemented with 10% fetal calf serum (Invitrogen, Carlsbad, Calif.) penicillin (50 U/ml), and streptomycin (50 μg/ml) (Invitrogen, Carlsbad, Calif.). Cells were seeded on culture dishes at a density of 25×10^3 cells/cm^2 and incubated at 37° C. in 5% CO2 and 90% relative humidity. Single cell suspensions were obtained by trypsinization (0.05% trypsin/EDTA), and cells were counted using a hemocytometer. Viability was determined by the trypan blue dye exclusion method.
(§2) Cell growth inhibitory effect of NOSH compounds were measured using a colorimetric MTT assay kit (Roche, Indianapolis, Ind.). Cancer cells were plated in 96-well plates at a density of 50,000 cells/well. The cells were incubated for 24 h with different concentrations of NOSH compounds. After the indicated time, 10 μl of MTT dye (3-[4,5-dimethylthiazol-2-yl]-2,5-diphenyl tetrazolium bromide, 5 mg/ml in phosphate buffered saline), was added to each well, and the plates were incubated for 2 hours at 37° C. Then, the media was aspirated, and add 100 μl of the solubilization solution (10% SDS in 0.01 M HCl) was added to each well to solubilize the formant crystals. The absorbance of the plates was measured on an ELISA reader at a wavelength of 570 nm. Each sample was performed in triplicate, and the entire experiment was repeated three times.
(§3) HT-29, SW-480 and HCT-15 human colon adenocarcinoma, MIA PaCa-2 and BxPC-3 human pancreatic cancer, LNCAP human prostate cancer, A549 and H383 human lung cancer, MCF-7, MDA-MB 231 and SK-BR-3 human breast cancer and Jurkat T cell human leukemia cell lines were obtained from American Type Tissue Collection (Manassas, Va.) All cells lines were grown as monolayers except for the Jurkat T cells which were grown as suspension culture. The pancreatic and breast cancer cells were grown in Dulbecco's modified Eagle's medium, the prostate, Jurkat, SW-480 and HCT-15 colon cells were grown in RPMI 1640 medium, the lung cells were grown in F-12 and the colon HT-29 cells were grown in McCoy 5A. All media were supplemented with 10% fetal calf serum (Invitrogen, Carlsbad, Calif.) penicillin (50 U/ml), and streptomycin (50 μg/ml) (Invitrogen, Carlsbad, Calif.). Cells were seeded on culture dishes at a density of 25×10^3 cells/cm^2 and incubated at 37° C. in 5% CO2 and 90% relative humidity. Single cell suspensions were obtained by trypsinization (0.05% trypsin/EDTA), and cells were counted using a hemacytometer. The final DMSO concentration was adjusted in all media to 1%. Viability was determined by the trypan blue dye exclusion method.
(§4) Cell growth inhibitory effect of all NOSH-NSAIDs was measured using a colorimetric MTT assay kit (Roche, Indianapolis, Ind.). Cancer cells were plated in 96-well plates at a density of 30,000-50,000 cells/well depending on cell type. The cells were incubated for 24 hours with different concentrations of NOSH-NSAIDs. After the indicated time, 10 μL of MTT dye (3-[4,5-dimethylthiazol-2-yl]-2,5-diphenyl tetrazolium bromide, 5 mg/mL in phosphate buffered saline), was added to each well, and the plates were incubated for 2 hours at 37° C. Then, the media was aspirated, and 100 μL of the solubilization solution (10% SDS in 0.01 M HCl) was added to each well to solubilize the formant crystals. […]

[2] = test system: MIA PaCa-2 human pancreatic cancer; experiment: MTT cell growth inhibition, MIA PaCa2; details: for IC50: Homo sapiens, MIA PaCa-2; for Ratio NSAID/NOSH-NSAID, MIAPaCa2: fold-enhancement in potency over the parent compound
Procedure: as §1, §2, §3, §4

[3] = test system: MCF-7 human breast cancer; experiment: MTT cell growth inhibition, MCF7; details: for IC50: Homo sapiens, MCF7; for Ratio NSAID/NOSH-NSAID, MCF7: fold-enhancement in potency over the parent compound
Procedure: as §1, §2, §3, §4

[4] = test system: BxPC-3 human pancreatic cancer; experiment: MTT cell growth inhibition, BxPC3; details: for IC50: Homo sapiens, BXPC-3, read-out: IC50 for cell growth inhibition, Pancreas BxPC3; for Ratio NSAID/NOSH-NSAID, BxPC3: fold-enhancement in potency over the parent compound
Procedure: as §1, §2, §3, §4

[5] = test system: Jurkat T cell human leukemia; experiment: MTT cell growth inhibition, Jurkat; details: for IC50: Homo sapiens, Jurkat; for Ratio NSAID/NOSH-NSAID, Jurkat: fold-enhancement in potency over the parent compound
Procedure: All cells lines were grown as monolayers except for the Jurkats which were grown in suspension. […] All media were supplemented with 10% fetal calf serum (Invitrogen, Carlsbad, Calif.) penicillin (50 U/ml), and streptomycin (50 μg/ml) (Invitrogen, Carlsbad, Calif.). Cells were seeded on culture dishes at a density of 25×10^3 cells/cm^2 and incubated at 37° C. in 5% CO2 and 90% relative humidity. Single cell suspensions were obtained by trypsinization (0.05% trypsin/EDTA), and cells were counted using a hemocytometer. Viability was determined by the trypan blue dye exclusion method.
as §2
All media were supplemented with 10% fetal calf serum (Invitrogen, Carlsbad, Calif.) penicillin (50 U/ml), and streptomycin (50 μg/ml) (Invitrogen, Carlsbad, Calif.). Cells were seeded on culture dishes at a density of 25×10^3 cells/cm^2 and incubated at 37° C. in 5% CO2 and 90% relative humidity. Single cell suspensions were obtained by trypsinization (0.05% trypsin/EDTA), and cells were counted using a hemacytometer. The final DMSO concentration was adjusted in all media to 1%. Viability was determined by the trypan blue dye exclusion method.
Cell growth inhibitory effect of all NOSH-NSAIDs was measured using a colorimetric MTT assay kit (Roche, Indianapolis, Ind.). Cancer cells were plated in 96-well plates at a density of 30,000-50,000 cells/well depending on cell type. The cells were incubated for 24 hours with different concentrations of NOSH-NSAIDs. After the indicated time, 10 μL of MTT dye (3-[4,5-dimethylthiazol-2-yl]-2,5-diphenyl tetrazolium bromide, 5 mg/mL in phosphate buffered saline), was added to each well, and the plates were incubated for 2 hours at 37° C. Then, the media was aspirated, and 100 μL of the solubilization solution (10% SDS in 0.01 M HCl) was added to each well to solubilize the formant crystals. The absorbance of the plates was measured on a spectrophotometric plate reader at a wavelength of 570 nm. Each experiment was performed in triplicate, and the entire experiment was repeated three times.

[6] = 24 hours, read-out: IC50 for cell growth inhibition, Lung A540
[7] = 24 hours, read-out: IC50 for cell growth inhibition, Pancreas MIA PaCa2
[8] = 24 hours (Table 7), read-out: IC50 for cell growth inhibition, Lung A549
[9] = 24 hours (Table 7), read-out: IC50 for cell growth inhibition, Pancreas MIAPaCa2

Row | SMILES | IC50 [1, 6] [µM] | IC50 [2, 7] [µM] | IC50 ([3]; 24 hours) [µM] | IC50 ([4]; 24 hours) [µM] | IC50 ([5]; 24 hours) [µM] | IC50 [1, 8] [µM] | Ratio NSAID/NOSH-NSAID, A549 [1] | IC50 [2, 9] [µM] | Ratio NSAID/NOSH-NSAID, MIAPaCa2 [2] | IC50 ([3]; 24 hours (Table 7)) [µM] | Ratio NSAID/NOSH-NSAID, MCF7 [3] | IC50 ([4]; 24 hours (Table 7)) [µM] | Ratio NSAID/NOSH-NSAID, BxPC3 [4] | IC50 ([5]; 24 hours (Table 7)) [µM] | Ratio NSAID/NOSH-NSAID, Jurkat [5]
1 | O=C(CCCO[N+](=O)[O-])Oc1ccccc1C(=O)Oc1ccc(-c2cc(=S)ss2)cc1 [NOSH-1, 4-(3-thioxo-3H-1,2-dithiol-5-yl)phenyl 2-((4-(nitrooxy)butanoyl)oxy)benzoate] | 0.05 ± 0.007 | 0.047 ± 0.005 | 0.28 ± 0.016 | 0.057 ± 0.004 | 0.1 ± 0.008 | – | – | – | – | – | – | – | – | – | –
2 | CC(C(=O)Oc1ccc(-c2cc(=S)ss2)cc1)c1ccc2cc(OC(=O)CCCO[N+](=O)[O-])ccc2c1 (stereo not drawn) [NOSH-7, 6-(1-oxo-1-(4-(3-thioxo-3H-1,2-dithiol-5-yl)phenoxy)propan-2-yl)naphthalen-2-yl 4-(nitrooxy)butanoate] | – | – | – | – | – | 0.1 | 26,500 | 0.095 | 33,684 | 0.11 | 21,363 | 0.08 | 30,625 | 0.1 | 25,500
3 | CC1=C(CC(=O)Oc2ccc(OC(=O)CCCO[N+](=O)[O-])c(C(=O)Oc3ccc(-c4cc(=S)ss4)cc3)c2)c2cc(F)ccc2/C1=C/c1ccc([S+](C)[O-])cc1 (stereo not drawn) [NOSH-8, (E)-4-(3-thioxo-3H-1,2-dithiol-5-yl)phenyl 5-(2-(5-fluoro-2-methyl-1-(4-(methylsulfinyl)benzylidene)-1H-inden-3-yl)acetoxy)-2-((4-(nitrooxy)butanoyl)oxy)benzoate] | – | – | – | – | – | 0.18 | 1,177 | 0.098 | 8,081 | 0.11 | 8,772 | 0.11 | 8,818 | 0.27 | 2,588
4 | COc1ccc2cc([C@H](C)C(=O)O)ccc2c1 [naproxen, reference compound] | – | – | – | – | – | – | – | 3200 | – | 2350 | – | 2450 | – | – | –
5 | CC1=C(CC(=O)O)c2cc(F)ccc2/C1=C\c1ccc([S+](C)[O-])cc1 (stereo not drawn) [sulindac, reference compound] | – | – | – | – | – | 212 | – | 792 | – | 965 | – | 970 | – | 699 | –

Continued, in another order:

Row | IC50 [1, 6] [µM] | IC50 [2, 7] [µM] | IC50 ([3]; 24 hours) [µM] | IC50 ([4]; 24 hours) [µM] | IC50 ([5]; 24 hours) [µM] | SMILES | IC50 [1, 8] [µM] | Ratio NSAID/NOSH-NSAID, A549 [1] | IC50 [2, 9] [µM] | Ratio NSAID/NOSH-NSAID, MIAPaCa2 [2] | IC50 ([3]; 24 hours (Table 7)) [µM] | Ratio NSAID/NOSH-NSAID, MCF7 [3] | IC50 ([4]; 24 hours (Table 7)) [µM] | Ratio NSAID/NOSH-NSAID, BxPC3 [4] | IC50 ([5]; 24 hours (Table 7)) [µM] | Ratio NSAID/NOSH-NSAID, Jurkat [5]
6 | 0.12 ± 0.014 | 0.102 ± 0.018 | 0.07 ± 0.005 | 0.1 ± 0.009 | 0.09 ± 0.005 | O=C(CCC(=O)Oc1ccccc1C(=O)Oc1ccc(-c2cc(=S)ss2)cc1)OCCCCO[N+](=O)[O-] [NOSH-2, 4-(nitrooxy)butyl (2-((4-(3-thioxo-3H-1,2-dithiol-5-yl)phenoxy)carbonyl)phenyl) succinate] | – | – | – | – | – | – | – | – | – | –
7 | 6.5 ± 0.224 | 4.8 ± 0.322 | 5.7 ± 0.323 | 5.5 ± 0.39 | 7 ± 0.321 | NC(=S)c1ccc(OC(=O)c2ccccc2OC(=O)CCCO[N+](=O)[O-])cc1 [NOSH-3, 4-carbamothioylphenyl 2-((4-(nitrooxy)butanoyl)-oxy)benzoate] | – | – | – | – | – | – | – | – | – | –
8 | 0.3 ± 0.012 | 0.8 ± 0.039 | 0.28 ± 0.015 | 0.7 ± 0.032 | 0.24 ± 0.011 | O=C(CCCC[C@@H]1CCSS1)Oc1ccccc1C(=O)OCCCCO[N+](=O)[O-] [NOSH-4, (R)-4-(nitrooxy)butyl 2-((5-(1,2-dithiolan-3-yl)pentanoyl)oxy)benzoate] | – | – | – | – | – | – | – | – | – | –
